Measurements: patent publication US12616684B2, “Pulmonary fibrosis medicine containing pyrazole derivative” (priority 2020, dated 2026)
pIC50: −log10 of the molar value. Counter-ions that a name gives are not always drawn. Like-named read-outs stand apart in the source and are kept apart here.

Key:
[1] = system: severe acute respiratory syndrome coronavirus 2 (SARS-CoV2); test: Antiviral activity against SARS-CoV2 in Calu-3 cells, real-time qRT-PCR; assay type: cell-based; settings: for pIC50: Severe acute respiratory syndrome coronavirus 2, SARS-CoV2 in Calu-3 cells, read-out: IC50 (50% inhibition concentration), antiviral efficacy
[2] = system: normal human lung fibroblasts (NHLFs); test: PMA stimulation-induced reactive oxygen species generation in normal human lung fibroblasts; assay type: cell-based; settings: FIG. 1
Text: In order to confirm the effect of the compounds of the synthetic examples on the generation of reactive oxygen species from lung fibroblasts, the generation of reactive oxygen species was induced through PMA stimulation in normal human lung fibroblasts (NHLFs, Lonza), and the inhibitory effect of Compound 1 on the generation of reactive oxygen species was observed under this condition. Each cell was suspended in a culture medium containing 10% FBS, seeded in a 96-well plate, and cultured for 24 hours under conditions of 5% CO2 and 37° C. After pre-treating Compound 1 for 30 minutes to 1 hour, TGF-β1 or phorbol 12-myristate 13-acetate (PMA) stimulation was applied to each well including cells and drugs.

[3] = system: normal human lung fibroblasts (NHLFs); test: TGF-β1-induced αSMA and collagen type I expression (myofibroblast differentiation), immunocytochemistry; assay type: cell-based; settings: 10 ng/ml TGF-β1 72 hours, 2 mM Compound 1 pre-treated 1 hour
Procedure: In order to analyze the effect of Compound 1 on the differentiation of lung fibroblasts into myofibroblasts, the inhibitory effect of Compound 1 on the increase in the expression of TGF-β1-induced α-smooth muscle actin (αSMA) and collagen type I (collagen I) in normal human lung fibroblasts (NHLFs, Lonza) was observed. NHLF cells were suspended in culture medium (FGM-2 Bulletkit media, Lonza) and inoculated at a concentration of 1×10^4 cells/well on a 4-well chamber slide (Nunc). After 24 hours of culture in a CO2 incubator, the medium was replaced with a serum-free medium and further cultured for 12 hours. Thereafter, vehicle and 2 mM Compound 1 were pre-treated in the corresponding wells for 1 hour, and then 10 ng/ml of TGF-β1 was treated in each well except for the negative control (vehicle group) for 72 hours. Confirmation of the expression of αSMA and collagen I in the prepared cells was performed through immunocytochemistry as follows. Cells were fixed in 4% paraformaldehyde for 10 minutes and permeated using 0.1% Triton X-100, and primary antibody (anti-αSMA Ab, 1:200; anti-collagen I Ab, 1:500, reacted for 3 hours at room temperature) and secondary antibody (ALEXA™-594 conjugated Ab, 1:1000, reacted for 1 hour at room temperature) treatment process was sequentially performed, and then the expression of αSMA and collagen I was observed using a fluorescence microscope. […]

IL-1β = test: LPS-induced IL-1β expression in normal human lung fibroblasts, RT-PCR; assay type: cell-based; settings: NHLFs, pre-treated 30 minutes, LPS 6 hours, FIG. 4
[4] = system: C57BL/6J mice with bleomycin-induced pulmonary fibrosis; test: Mouse model with bleomycin-induced pulmonary fibrosis; assay type: in vivo; settings: for improved (modified) Ashcroft score: oral once a day for 28 days, Compound 1 60 mg/kg, nintedanib 100 mg/kg, BLM group 5.5±0.8, mean and standard deviation, FIG. 9
Procedure: For the mouse model with bleomycin-induced pulmonary fibrosis, C57BL/6J male mice aged 5 weeks and before and after body weight of 20 g were used. C57BL/6J mice were anesthetized by intraperitoneally injection of pentobarbital (40 mg/kg), the skin of the anterior neck or midline was incised, the trachea was exposed with a self-retaining retractor, and then a micro syringe was inserted from the occipital side to the lungs to slowly administer bleomycin (2 mg/kg) while checking the state of respiration. Immediately after injection, the skin of the incised anterior neck or midline was sutured, and then they were bred in a sterile animal room at constant temperature (22-26° C.) and constant humidity (55-60%). By this method, remarkable fibrosis occurred in the lungs, usually after 3 weeks of treatment. Experimental animals were 7 animals in each group, and the experiment was conducted by dividing them into the following groups: a control group (Control) orally administered with distilled water, a group (BLM) with bleomycin-induced pulmonary fibrosis, an experimental group as a positive control group (BLM+Nintedanib) orally administered with 100 mg/kg of nintedanib daily 3 weeks after administration of bleomycin, and an experimental group (BLM+Compound 1) orally administered with 60 mg/kg of Compound 1 daily 3 weeks after administration of bleomycin. Nintedanib and Compound 1 were orally administered once a day for 28 days. On the day after the last administration of nintedanib or compound 1, each animal was anesthetized, and then was bled by cardiac puncture and sacrificed. Lung tissues were enucleated from all animals for histopathological examination. The enucleated lung tissue was fixed in 10% neutral buffered formalin (NBF). The fixed lung tissue was embedded in paraffin and sliced to a thickness of 4 μm to prepare a tissue slide. The tissue slides were subjected to hematoxylin & eosin (H&E) staining, which is cell staining, and Masson's trichrome (MT) staining to confirm fibrosis. Histopathological examination of the prepared tissue slides was confirmed using an optical microscope (Carl Zeiss, Oberkochen, Germany). The severity of fibrosis was assessed using the modified Ashcroft scale, which is a semi-quantitative histopathological scoring. For immunohistochemical staining, the tissue slides prepared above were de-paraffinized, and then rabbit anti-α-smooth muscle actin (SMA) antibody or rabbit anti-collagen type I antibody was used as a primary antibody. And, Vectastatin ABC kit (Vector Laboratories, Inc, Burlingame, CA) was used to confirm the expression of the antigen reacted with each antibody. […] When reading the staining result, if the cytoplasm is colored reddish-brown in whole or in part, it is considered that there is an immune reaction, and thus, it is read as positive. From the experimental results, the mean and standard deviation were obtained using the SPSS ver. 22.0 statistical program (SPSS Inc., Chicago, IL, USA), and the significance of the difference between the experimental groups was verified at p<0.05 level by the student t-test.

[5] = Toxicity to Calu-3 human lung epithelial cells; assay type: cell-based; settings: Calu-3 cells, read-out: CC50 (50% cytotoxic concentration)
Procedure: In order to analyze the antiviral activity of the compounds of the synthetic examples, real-time qRT-PCR (quantitative RT-PCR) was perfumed using severe acute respiratory syndrome coronavirus 2 (SARS-CoV2) and Calu-3 cells, which are human lung epithelial cells. Human lung epithelial cells (Calu-3) were cultured in Dulbecco's Modified Eagle Medium (DMEM) at 37° C. under 5% CO2. The concentration of Compound 1 was 15, 12.5, 6.25, 3.125, 1.563, 0.781, 0.391, 0.195, 0.098, 0.049, 0.024, 0.012 μM. Antiviral efficacy (IC50; 50% inhibition concentration) and toxicity to the cells (CC50; 50% cytotoxic concentration) according to drug concentration were measured at 24 hours and 48 hours after treatment on the cells by concentration, and are shown in Table 1 and FIG. 10.

[6] = 60 mg/kg oral once a day for 28 days, FIG. 5

Compound	SI ([1]; CC50/IC50, 24 hours)	SI ([1]; CC50/IC50, 48 hours)	pIC50 ([1]; 24 hours after treatment)	pIC50 ([1]; 48 hours after treatment)	generation of PMA stimulation-induced reactive oxygen species [2]	increase in the expression of αSMA ([3]; FIG. 2)	increase in the expression of collagen I ([3]; FIG. 3)	LPS-induced IL-1β expression (IL-1β)	deformation of the lung structure (H&E staining) [4, 6]	hypertrophic epithelial cells (H&E staining) [4, 6]	site of abnormal tissue deposition (H&E staining) [4, 6]	degree of infiltration of inflammatory cells into the alveolus and bronchiole (H&E staining) ([4]; 60 mg/kg oral once a day for 28 days, compared with BLM and BLM+Nintedanib groups, FIG. 5)	size of the fibrosis area and deposition of collagen due to fibrosis (Masson's trichrome staining) ([4]; 60 mg/kg oral once a day for 28 days, compared with BLM and BLM+Nintedanib groups, FIG. 6)	expression of α-SMA in lung tissue (immunohistochemical staining) ([4]; 60 mg/kg oral once a day for 28 days, compared with BLM and BLM+Nintedanib groups, FIG. 7)	expression of collagen type I (collagen I) in lung tissue (immunohistochemical staining) ([4]; 60 mg/kg oral once a day for 28 days, compared with BLM and BLM+Nintedanib groups, FIG. 8)	improved (modified) Ashcroft score [4]	CC50 at 24 h ([5]; 24 hours after treatment) [µM]	CC50 at 48 h ([5]; 48 hours after treatment) [µM]
CCCc1c(-c2ccccc2)nn(-c2ccccn2)c1O [Compound 1, 3-phenyl-4-propyl-1-(pyridin-2-yl)-1H-pyrazol-5-ol hydrochloride]	13.80	98.50	4.50	5.78	inhibited in a concentration-dependent manner	remarkably inhibited	remarkably inhibited	effectively inhibited in a concentration-dependent manner	reduced	decreased	reduced	significantly lower than that of the experimental group and the positive control group	remarkably reduced	reduced	remarkably reduced	4.0±1.1	435	164
COC(=O)c1ccc2c(c1)NC(=O)/C2=C(\Nc1ccc(N(C)C(=O)CN2CCN(C)CC2)cc1)c1ccccc1 [nintedanib, reference compound]																5.2±0.45		
